Consider 11 compounds from patent publication US20220340597A1, “HEXAHYDRO-1H-PYRAZINO[1,2-A]PYRAZINE COMPOUNDS FOR THE TREATMENT OF AUTOIMMUNE DISEASE” (Hoffmann-La Roche Inc., priority 2019, published 2022).

The target in one data set is T1, human TLR7 (Homo sapiens, UniProt Q9NYK1).
T1 construct: host or cells: HEK293 (HEK-Blue hTLR7)
T1 sequence (Q9NYK1 27-1049): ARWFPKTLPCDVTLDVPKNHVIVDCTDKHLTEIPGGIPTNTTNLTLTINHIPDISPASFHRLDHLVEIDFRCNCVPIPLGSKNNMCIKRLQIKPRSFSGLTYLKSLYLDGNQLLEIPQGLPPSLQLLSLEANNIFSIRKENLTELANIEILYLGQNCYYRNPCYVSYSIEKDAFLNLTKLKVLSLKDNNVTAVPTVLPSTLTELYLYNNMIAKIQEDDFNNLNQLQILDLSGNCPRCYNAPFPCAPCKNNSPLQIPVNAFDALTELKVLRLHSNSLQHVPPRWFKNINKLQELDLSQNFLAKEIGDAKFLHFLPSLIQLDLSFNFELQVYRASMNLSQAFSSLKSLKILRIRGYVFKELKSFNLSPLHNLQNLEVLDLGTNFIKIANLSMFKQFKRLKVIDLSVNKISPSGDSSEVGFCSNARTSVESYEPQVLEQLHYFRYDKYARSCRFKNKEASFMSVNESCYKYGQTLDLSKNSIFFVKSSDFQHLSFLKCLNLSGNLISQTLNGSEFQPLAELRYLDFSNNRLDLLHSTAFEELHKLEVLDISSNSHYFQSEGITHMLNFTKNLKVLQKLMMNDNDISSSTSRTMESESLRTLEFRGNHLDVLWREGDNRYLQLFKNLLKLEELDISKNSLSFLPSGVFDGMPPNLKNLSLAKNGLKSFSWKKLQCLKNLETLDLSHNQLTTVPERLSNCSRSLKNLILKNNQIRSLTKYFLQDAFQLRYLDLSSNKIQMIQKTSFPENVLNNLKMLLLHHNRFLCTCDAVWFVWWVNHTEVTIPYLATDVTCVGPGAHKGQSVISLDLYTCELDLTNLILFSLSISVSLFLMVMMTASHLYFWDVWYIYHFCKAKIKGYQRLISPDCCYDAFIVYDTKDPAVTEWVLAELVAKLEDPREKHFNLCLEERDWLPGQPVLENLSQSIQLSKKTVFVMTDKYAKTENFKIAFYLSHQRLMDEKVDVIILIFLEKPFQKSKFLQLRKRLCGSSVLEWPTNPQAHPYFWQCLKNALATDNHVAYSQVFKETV
Description: HEK293-Blue-hTLR-7 cells assay. Format: cell-based. The conditions noted are these: HEK293-Blue-hTLR7 cells, R848 stimulation, 20 hrs, SEAP reporter; read-out: HEK/hTLR7 IC50.

Another data set addresses T2, hERG channel (Homo sapiens, UniProt Q12809).
T2 construct: expressed in transfected cells; host or cells: CHO (Chinese hamster ovary), CHOhERG
Description: hERG channel inhibition assay (patch-clamp, CHOhERG cells). Type of data set: cell-based. The note with it: for IC50 / IC20: CHOhERG cells, whole-cell patch-clamp; for IC20: human, CHO cells stably expressing hERG (CHOhERG); for hERG IC20/TLR7 IC50 / hERG IC20/TLR8 IC50 / hERG IC20/TLR9 IC50: safety ratio. The method, then: hERG Channel Inhibition Assay:
The hERG K^+ channels were cloned in humans and stably expressed in a CHO (Chinese hamster ovary) cell line. CHOhERG cells were used for patch-clamp (voltage-clamp, whole-cell) experiments. Cells were stimulated by a voltage pattern to activate hERG channels and conduct IKhERG currents (rapid delayed outward rectifier potassium current of the hERG channel). After the cells were stabilized for a few minutes, the amplitude and kinetics of IKhERG were recorded at a stimulation frequency of 0.1 Hz (6 bpm). Thereafter, the test compound was added to the preparation at increasing concentrations. For each concentration, an attempt was made to reach a steady-state effect, usually, this was achieved within 3-10 min at which time the next highest concentration was applied. The amplitude and kinetics of IKhERG are recorded in each concentration of the drug which were compared to the control values (taken as 100%). (references: Redfern W S, Carlsson L, Davis A S, Lynch W G, MacKenzie I, Palethorpe S, Siegl P K, Strang I, Sullivan A T, Wallis R, Camm A J, Hammond T G. 2003; Relationships between preclinical cardiac electrophysiology, clinical QT interval prolongation and torsade de pointes for a broad range of drugs: evidence for a provisional safety margin in drug development. Cardiovasc. Res. 58:32-45, Sanguinetti M C, Tristani-Firouzi M. 2006; hERG potassium channels and cardiac arrhythmia. Nature 440:463-469, Webster R, Leishman D, Walker D. 2002; Towards a drug concentration effect relationship for QT prolongation and torsades de pointes. Curr. Opin. Drug Discov. Devel. 5:116-26).
The calculation of hERG IC20/TLR7/8/9 IC50 below serves as early selectivity index to assess hERG liability.
A general note: hERG is a cardiac potassium channel; its block is linked to QT prolongation.

T2 sequence (Q12809 whole entry): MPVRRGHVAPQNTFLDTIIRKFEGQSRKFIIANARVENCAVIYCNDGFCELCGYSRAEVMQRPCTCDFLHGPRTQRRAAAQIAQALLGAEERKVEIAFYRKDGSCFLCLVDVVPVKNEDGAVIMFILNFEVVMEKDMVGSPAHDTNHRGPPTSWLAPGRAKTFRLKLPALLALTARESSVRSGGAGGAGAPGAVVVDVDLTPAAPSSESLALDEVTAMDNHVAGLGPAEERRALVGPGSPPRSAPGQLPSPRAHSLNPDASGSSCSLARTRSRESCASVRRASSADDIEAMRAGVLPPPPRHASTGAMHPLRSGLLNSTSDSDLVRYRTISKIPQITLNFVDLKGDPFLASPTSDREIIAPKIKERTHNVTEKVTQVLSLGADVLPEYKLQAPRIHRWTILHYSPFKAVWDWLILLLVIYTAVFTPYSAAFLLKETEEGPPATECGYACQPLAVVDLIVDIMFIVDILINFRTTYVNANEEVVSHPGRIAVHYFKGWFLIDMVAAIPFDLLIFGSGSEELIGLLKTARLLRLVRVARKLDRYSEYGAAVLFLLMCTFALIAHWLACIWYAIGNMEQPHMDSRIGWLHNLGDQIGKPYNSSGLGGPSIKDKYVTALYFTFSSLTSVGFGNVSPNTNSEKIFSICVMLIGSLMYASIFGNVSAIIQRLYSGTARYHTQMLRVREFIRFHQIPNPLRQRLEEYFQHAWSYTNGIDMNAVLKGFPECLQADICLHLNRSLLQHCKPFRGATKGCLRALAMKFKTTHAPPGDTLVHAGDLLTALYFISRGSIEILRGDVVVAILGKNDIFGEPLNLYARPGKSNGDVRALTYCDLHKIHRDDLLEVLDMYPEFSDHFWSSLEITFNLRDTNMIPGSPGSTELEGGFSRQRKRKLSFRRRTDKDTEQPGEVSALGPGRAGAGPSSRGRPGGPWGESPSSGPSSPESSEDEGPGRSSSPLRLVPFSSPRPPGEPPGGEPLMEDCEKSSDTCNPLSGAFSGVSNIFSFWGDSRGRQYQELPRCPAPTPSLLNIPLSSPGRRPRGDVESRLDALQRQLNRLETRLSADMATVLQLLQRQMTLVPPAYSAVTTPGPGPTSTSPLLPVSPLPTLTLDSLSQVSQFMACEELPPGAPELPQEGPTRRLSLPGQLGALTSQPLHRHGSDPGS

Take `[2H]c1ccc2c(N3C[C@@H]4CN(c5ccc(N6CC7CCC(C6)N7)nc5)CCN4[C@@H](C)C3)ccc(C#N)c2n1` [Example 112, 5-[(4S,9aR)-8-[6-(3,8-diazabicyclo[3.2.1]octan-3-yl)-3-pyridyl]-4-methyl-3,4,6,7,9,9a-hexahydro-1H-pyrazino[1,2-a]pyrazin-2-yl]-2-deuterio-quinoline-8-carbonitrile]: the IC50 at human TLR7 came to 0.004 µM. At hERG channel, the IC50 was over 20 µM; the IC20 (as a rule, the concentration needed for an effect of 20%) is over 10 µM; the “hERG IC20/TLR7 IC50” value is given as over 2500; the “hERG IC20/TLR8 IC50” value is over 1000. Also, the “hERG IC20/TLR9 IC50” value at hERG channel was over 122.

In the case of `C[C@@H]1CN(c2ccc(C#N)c3ncccc23)C[C@@H]2CN(c3cccc4c3CNC4)CCN21` [Example 9, 5-[(4R,9aS)-8-isoindolin-4-yl-4-methyl-3,4,6,7,9,9a-hexahydro-1H-pyrazino[1,2-a]pyrazin-2-yl]quinoline-8-carbonitrile], the IC50 on human TLR7 was determined as 0.003 µM. At hERG channel, the IC50 was over 20 µM, the 20% effect level (IC20) was put at 5.17 µM, the “hERG IC20/TLR7 IC50” value amounted to 1723 and the “hERG IC20/TLR8 IC50” value worked out at 5170. Besides, the “hERG IC20/TLR9 IC50” value on hERG channel came out at 65.

In the case of `[2H]c1ccc2c(N3C[C@@H]4CN(c5ccc([C@@H]6CNCCO6)cc5)CCN4[C@@H](C)C3)ccc(C#N)c2n1` [Example 106, 5-[(4S,9aS)-4-methyl-8-[4-[(2R)-morpholin-2-yl]phenyl]-3,4,6,7,9,9a-hexahydro-1H-pyrazino[1,2-a]pyrazin-2-yl]-2-deuterio-quinoline-8-carbonitrile], the IC50 on human TLR7 was 0.002 µM. In addition, at hERG channel, the IC50 was over 20 µM, the IC20 was over 10 µM, the “hERG IC20/TLR7 IC50” value is over 5000 and the “hERG IC20/TLR8 IC50” value was over 2500. Besides, the “hERG IC20/TLR9 IC50” value at hERG channel is listed as over 78.

For `[2H]c1ccc2c(N3C[C@@H]4CN(c5ccc6c(n5)CCNC6)CCN4[C@@H](C)C3)ccc(C#N)c2n1` [Example 121, 5-[(4S,9aR)-4-methyl-8-(5,6,7,8-tetrahydro-1,6-naphthyridin-2-yl)-3,4,6,7,9,9a-hexahydro-1H-pyrazino[1,2-a]pyrazin-2-yl]-2-deuterio-quinoline-8-carbonitrile], the IC50 on human TLR7 came to 0.005 µM. Besides, at hERG channel, the IC50 is over 20 µM, the IC20 is over 10 µM, the “hERG IC20/TLR7 IC50” value was over 2000 and the “hERG IC20/TLR8 IC50” value is over 10000. Moreover, the “hERG IC20/TLR9 IC50” value on hERG channel is on record as over 117.

Take `C[C@@H]1CN(c2ccc(C#N)c3ncccc23)C[C@@H]2CN(c3nccc(N4CC(N)C4)n3)CCN21` [Example 39, 5-[(4R,9aR)-8-[4-(3-aminoazetidin-1-yl)pyrimidin-2-yl]-4-methyl-3,4,6,7,9,9a-hexahydro-1H-pyrazino[1,2-a]pyrazin-2-yl]quinoline-8-carbonitrile]: the IC50 at human TLR7 was found to be 0.021 µM. For the same compound, on hERG channel, the IC50 is over 10 µM, the concentration for an effect of 20% (IC20) came out at 5 µM, the “hERG IC20/TLR7 IC50” value worked out at 238 and the “hERG IC20/TLR8 IC50” value came to 294. In addition, the “hERG IC20/TLR9 IC50” value at hERG channel came out at 53.

As for `[2H]c1ccc2c(N3C[C@@H]4CN(c5ncc(N6C[C@@H]7C[C@H]6CN7)cc5C)CCN4[C@@H](C)C3)ccc(C#N)c2n1` [Example 111, 5-[(4S,9aR)-8-[5-[(1S,4S)-2,5-diazabicyclo[2.2.1]heptan-2-yl]-3-methyl-2-pyridyl]-4-methyl-3,4,6,7,9,9a-hexahydro-1H-pyrazino[1,2-a]pyrazin-2-yl]-2-deuterio-quinoline-8-carbonitrile], the IC50 on human TLR7 is 0.006 µM. Further, at hERG channel, the IC50 is over 20 µM, the 20% effect concentration (IC20) was over 10 µM, the “hERG IC20/TLR7 IC50” value is listed as over 1666 and the “hERG IC20/TLR8 IC50” value is over 2000. Moreover, on hERG channel, the “hERG IC20/TLR9 IC50” value is over 84.

Take `CO[C@@H]1CN(c2nccc(N3CCN4[C@@H](C3)CN(c3ccc(C#N)c5ncccc35)C[C@H]4C)n2)C[C@H]1N` [Example 36, 5-[(4R,9aR)-8-[2-[(3R,4R)-3-amino-4-methoxy-pyrrolidin-1-yl]pyrimidin-4-yl]-4-methyl-3,4,6,7,9,9a-hexahydro-1H-pyrazino[1,2-a]pyrazin-2-yl]quinoline-8-carbonitrile]: the IC50 at human TLR7 came to 0.013 µM. At hERG channel, the IC50 is over 20 µM, it took 5.6 µM to reach the 20% level (IC20), the “hERG IC20/TLR7 IC50” value is on record as 431 and the “hERG IC20/TLR8 IC50” value was found to be 373. The “hERG IC20/TLR9 IC50” value at hERG channel amounted to 82.

With `C[C@@H]1CN(c2ccc(C#N)c3ncccc23)C[C@@H]2CN(Cc3ccc(N4CCNCC4)nc3)CCN21` [Example 8, 5-[(4R,9aS)-4-methyl-8-[(6-piperazin-1-yl-3-pyridyl)methyl]-3,4,6,7,9,9a-hexahydro-1H-pyrazino[1,2-a]pyrazin-2-yl]quinoline-8-carbonitrile], the IC50 at human TLR7 is 0.022 µM. At hERG channel, the IC50 is over 20 µM, the IC20 worked out at 8.63 µM, the “hERG IC20/TLR7 IC50” value is listed as 392 and the “hERG IC20/TLR8 IC50” value was 166. Moreover, the “hERG IC20/TLR9 IC50” value on hERG channel is on record as 210.

On to `Cc1cc(N2CCNCC2)ncc1N1CCN2CCN(c3ccc(C#N)c4ncccc34)CC2C1` (stereo not drawn) [Example 38, 5-[2-(4-methyl-6-piperazin-1-yl-3-pyridyl)-3,4,6,7,9,9a-hexahydro-1H-pyrazino[1,2-a]pyrazin-8-yl]quinoline-8-carbonitrile], for which, at human TLR7, the IC50 was 0.002 µM. At hERG channel, the IC50 is over 20 µM, the IC20 was over 10 µM, the “hERG IC20/TLR7 IC50” value is over 5000 and the “hERG IC20/TLR8 IC50” value is recorded as over 1250. Further, the “hERG IC20/TLR9 IC50” value at hERG channel is reported as over 108.

As for `[2H]c1ccc2c(N3C[C@@H]4CN(Cc5ccc(N6CC(C)(N)C6)nc5C)CCN4[C@H](C)C3)ccc(C#N)c2n1` [Example 79, 5-[(4R,9aS)-8-[[6-(3-amino-3-methyl-azetidin-1-yl)-2-methyl-3-pyridyl]methyl]-4-methyl-3,4,6,7,9,9a-hexahydro-1H-pyrazino[1,2-a]pyrazin-2-yl]-2-deuterio-quinoline-8-carbonitrile], the IC50 at human TLR7 worked out at 0.019 µM. Further, on hERG channel, the IC50 is over 20 µM, the IC20 is over 10 µM, the “hERG IC20/TLR7 IC50” value is over 526 and the “hERG IC20/TLR8 IC50” value was over 1666. Besides, at hERG channel, the “hERG IC20/TLR9 IC50” value was over 217.

In the case of `[2H]c1ccc2c(N3C[C@@H]4CN(c5ccc(CCN6C[C@H](OC)[C@@H](N)C6)cn5)CCN4[C@H](C)C3)ccc(C#N)c2n1` [Example 109, 5-[(4R,9aR)-8-[5-[2-[(3S,4S)-3-amino-4-methoxy-pyrrolidin-1-yl]ethyl]-2-pyridyl]-4-methyl-3,4,6,7,9,9a-hexahydro-1H-pyrazino[1,2-a]pyrazin-2-yl]-2-deuterio-quinoline-8-carbonitrile], the IC50 on human TLR7 came out at 0.005 µM. On hERG channel, the IC50 is over 20 µM, the concentration for an effect of 20% (IC20) is over 10 µM, the “hERG IC20/TLR7 IC50” value is on record as over 2000 and the “hERG IC20/TLR8 IC50” value is listed as over 2500. Also, the “hERG IC20/TLR9 IC50” value on hERG channel was over 90.
